Source: US20240255506A1, “PAIRED-CELL PROFILING SYSTEMS FOR HIGH-THROUGHPUT SCREENING SYNCYTIUM FORMATION” (priority 2023, published 2024)

Legend:
SARS-COV-2 = conditions: Vero E6 cells; previous study (ref. 25); cited from earlier work
[1] = tested on: SARS-COV-2-induced syncytium formation in Vero E6 cells; conditions: drug screen with more than 3,000 approved drugs (ref. 19); cited from earlier work
[2] = tested on: SARS-COV-2 spike-induced syncytium formation in A549-ACE2 cells; assay type: cell-based; conditions: A549-ACE2-GFP1-10 cells pre-incubated with drug 20 min in FBS-free medium, then mixed with 293T-spike-GFP11-mCherry cells, 24 h

Row | SMILES | SARS-COV-2-induced cytotoxicity (SARS-COV-2) | SARS-COV-2-induced syncytium formation [1] | cell-cell fusion process (syncytium formation) [2]
1 | CC(CN1c2ccccc2Sc2ccccc21)N(C)C (stereo not shown) [promethazine] | reduces SARS-COV-2-induced cytotoxicity | some inhibitory effects | –
2 | COCCCC/C(=N\OCCN)c1ccc(C(F)(F)F)cc1 [fluvoxamine] | – | some inhibitory effects | –
3 | O=C1NC(=NS(=O)(=O)c2cccc3ccccc23)S/C1=C\c1ccc(Br)cc1 [Pitstop 2] | – | – | suppressed the cell-cell fusion process
